What was measured:
[1] = target: CYP2D6 (Homo sapiens, UniProt P10635); conditions: cited from earlier work
[2] = Plasma protein binding, human; format: in vitro ADME
[3] = target: CYP3A4 (Homo sapiens, UniProt P08684); conditions: cited from earlier work
[4] = tested on: anesthetized rats; experiment: Cardiovascular model in anesthetized rat: intrinsic effect on MAP and HR; format: in vivo; conditions: IP
Description: These studies were conducted to assess the effect of a single administration of 4-[2-(2,4,6-trifluorophenoxymethyl)phenyl]piperidine on heart rate (HR) and mean arterial pressure (MAP) in anesthetized rats.
Normotensive male Sprague-Dawley rats weighing between 250-350 g were anesthetized with an intraperitoneal injection (IP) of thiobutabarbital (Inactin). All animals were kept under complete anesthesia (i.e., absence of response to toe pinch test) for the surgery and for the duration of the study. The right common carotid artery and jugular vein were isolated and catheterized. The trachea was intubated to keep the airway open during the study. After completion of surgery, the arterial catheter was connected to a pressure transducer and baseline blood pressure [Systolic (SBP), Mean Arterial (MAP) and Diastolic (DBP)] and heart rate (HR) were recorded using the Notocord-HEM data acquisition system. Following at least 60 min of baseline (i.e., the last 10 min was stable), vehicle (10% Tween20, 2 mL/kg, IP) was administered and any potential effect was monitored for at least 10 min. After this period, rats were injected with either vehicle or 4-[2-(2,4,6-trifluorophenoxymethyl)phenyl]piperidine ([…], 2 mL/kg, IP) and changes in MAP and HR were monitored for 25 min. […]

Chain of CYP2D6 (P10635 whole entry): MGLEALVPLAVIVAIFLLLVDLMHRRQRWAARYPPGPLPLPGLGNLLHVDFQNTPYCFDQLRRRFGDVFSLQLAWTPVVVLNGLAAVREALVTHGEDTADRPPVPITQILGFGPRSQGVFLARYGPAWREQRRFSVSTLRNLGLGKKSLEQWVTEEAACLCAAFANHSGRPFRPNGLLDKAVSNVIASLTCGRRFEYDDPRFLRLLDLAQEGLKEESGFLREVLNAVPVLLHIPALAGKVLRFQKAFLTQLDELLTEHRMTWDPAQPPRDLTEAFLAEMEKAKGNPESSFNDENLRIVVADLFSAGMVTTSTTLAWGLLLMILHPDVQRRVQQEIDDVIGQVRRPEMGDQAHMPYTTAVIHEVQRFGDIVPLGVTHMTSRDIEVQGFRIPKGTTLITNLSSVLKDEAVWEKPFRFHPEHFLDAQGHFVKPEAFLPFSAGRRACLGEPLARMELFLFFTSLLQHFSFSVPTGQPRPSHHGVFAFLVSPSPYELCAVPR
Chain of CYP3A4 (P08684 whole entry): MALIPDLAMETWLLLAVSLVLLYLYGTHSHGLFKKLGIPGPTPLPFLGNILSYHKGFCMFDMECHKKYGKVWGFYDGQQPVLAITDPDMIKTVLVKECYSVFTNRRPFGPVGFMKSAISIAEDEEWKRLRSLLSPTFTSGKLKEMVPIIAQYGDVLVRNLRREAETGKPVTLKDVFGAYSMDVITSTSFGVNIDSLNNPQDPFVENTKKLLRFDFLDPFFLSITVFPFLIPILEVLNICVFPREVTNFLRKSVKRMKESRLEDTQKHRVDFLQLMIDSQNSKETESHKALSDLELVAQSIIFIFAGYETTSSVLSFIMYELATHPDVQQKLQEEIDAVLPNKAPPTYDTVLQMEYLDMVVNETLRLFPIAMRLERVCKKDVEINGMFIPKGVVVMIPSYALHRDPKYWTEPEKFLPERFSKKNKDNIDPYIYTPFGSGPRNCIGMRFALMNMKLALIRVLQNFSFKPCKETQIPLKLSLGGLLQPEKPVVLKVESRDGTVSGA

For `Fc1cc(F)c(OCc2ccccc2C2CCNCC2)c(F)c1` [4-[2-(2,4,6-trifluorophenoxymethyl)phenyl]piperidine], the “reduction of metabolism by chemical inhibition of CYP2D6” value [1] is listed as 7%, the fraction unbound [2] is listed as 0.209 and the “reduction of metabolism by chemical inhibition of CYP3A4” value [3] is listed as 34%. The “HR EC25 (free plasma concentration that produced a change in HR of 25 bpm)” value [4] was 8.6 nM and the “MAP EC10 (free plasma concentration that produced a change in MAP of 10 mm Hg)” value [4] was 101.4 nM.

— patent US10238642B2, “Methods for treating neurogenic orthostatic hypotension” (Theravance Biopharma R&D IP, LLC, priority 2016, dated 2019)
